Patent US20220119354A1, “DIAMINO-SUBSTITUTED PYRIDINES AND PYRIMIDINES AS HERBICIDES” (FMC Corporation, priority 2019, published 2022)

Key:
Format in all cases: in vivo
[1] = system: barnyardgrass (Echinochloa crus-galli); test: Test A preemergence, barnyardgrass; conditions: 0 to 100 scale, 0 is no effect, 100 is complete control
How it was run: (§1)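 Pots of loam–sand mix; preemergence directed soil spray at sowing, postemergence spray at one- to two-leaf stage. Readout: visual injury vs untreated controls, ~10 d, 0–100 scale.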

kochia (Kochia scoparia) [2] = test: Test A preemergence, kochia; conditions: 0 to 100 scale, 0 is no effect, 100 is complete control
How it was run: as §1

[3] = system: ragweed (common ragweed, Ambrosia elatior); test: Test A preemergence, ragweed; conditions: 0 to 100 scale, 0 is no effect, 100 is complete control
How it was run: as §1

[4] = system: ryegrass, Italian (Lolium multiflorum); test: Test A preemergence, Italian ryegrass; conditions: 0 to 100 scale, 0 is no effect, 100 is complete control
How it was run: as §1

[5] = system: foxtail, giant (Setaria faberii); test: Test A preemergence, giant foxtail; conditions: 0 to 100 scale, 0 is no effect, 100 is complete control
How it was run: as §1

[6] = system: pigweed (Amaranthus retroflexus); test: Test A preemergence, pigweed; conditions: 0 to 100 scale, 0 is no effect, 100 is complete control
How it was run: as §1

[7] = system: barnyardgrass (Echinochloa crus-galli); test: Test A postemergence, barnyardgrass; conditions: Echinochloa crus-galli, post-emergence, 240 h, 0 to 100 scale, 0 no effect, 100 complete control, read-out: Plant response rating, Barnyardgrass; for pest or weed control at 125 g/ha: 125 g ai/ha; for pest or weed control at 500 g/ha: 500 g ai/ha
How it was run: as §1

kochia (Kochia scoparia) [8] = test: Test A postemergence, kochia; conditions: Bassia scoparia, post-emergence, 240 h, 0 to 100 scale, 0 no effect, 100 complete control, read-out: Plant response rating, Kochia; for pest or weed control at 125 g/ha: 125 g ai/ha; for pest or weed control at 500 g/ha: 500 g ai/ha
How it was run: as §1

[9] = system: ragweed (common ragweed, Ambrosia elatior); test: Test A postemergence, ragweed; conditions: Ambrosia artemisiifolia, post-emergence, 240 h, 0 to 100 scale, 0 no effect, 100 complete control, read-out: Plant response rating, Ragweed; for pest or weed control at 125 g/ha: 125 g ai/ha; for pest or weed control at 500 g/ha: 500 g ai/ha
How it was run: as §1

[10] = system: ryegrass, Italian (Lolium multiflorum); test: Test A postemergence, Italian ryegrass; conditions: Lolium multiflorum, post-emergence, 240 h, 0 to 100 scale, 0 no effect, 100 complete control, read-out: Plant response rating, Ryegrass, Italian; for pest or weed control at 125 g/ha: 125 g ai/ha; for pest or weed control at 500 g/ha: 500 g ai/ha
How it was run: as §1

[11] = system: foxtail, giant (Setaria faberii); test: Test A postemergence, giant foxtail; conditions: Setaria faberi, post-emergence, 240 h, 0 to 100 scale, 0 no effect, 100 complete control, read-out: Plant response rating, Foxtail, Giant; for pest or weed control at 125 g/ha: 125 g ai/ha; for pest or weed control at 500 g/ha: 500 g ai/ha
How it was run: as §1

[12] = system: wheat (Triticum aestivum); test: Test A postemergence, wheat; conditions: Triticum aestivum, post-emergence, 240 h, 0 to 100 scale, 0 no effect, 100 complete control, read-out: Plant response rating, Wheat; for plant injury at 125 g/ha: 125 g ai/ha; for plant injury at 500 g/ha: 500 g ai/ha
How it was run: as §1

corn (Zea mays) = test: Test A postemergence, corn; conditions: Zea mays, post-emergence, 240 h, 0 to 100 scale, 0 no effect, 100 complete control; for Corn plant response rating (crop injury, 0 = no effect, 100 = complete kill) at 125 g/ha: 125 g ai/ha; for Corn plant response rating (crop injury, 0 = no effect, 100 = complete kill) at 500 g/ha: 500 g ai/ha
How it was run: as §1

rice (Oryza sativa) = test: Test B flooded paddy test, rice; conditions: Oryza sativa, 360 h; Flood, 250 g ai/ha, applied to paddy water, 2-leaf stage, visual evaluation after 13 to 15 d; read-out: Plant response rating, Rice (0 to 100 scale, 0 is no effect, 100 is complete control)
How it was run: (§2)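 Application was made into paddy water of pots flooded 3 cm deep at treatment, with seedlings at the 2-leaf stage. That flood level was kept throughout, and plants stayed under glass 13 to 15 d before visual assessment on a 0–100 control scale.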

[13] = system: sedge, umbrella (small-flower umbrella sedge, Cyperus difformis); test: Test B flooded paddy test, umbrella sedge; conditions: Cyperus difformis, 360 h; Flood, 250 g ai/ha, applied to paddy water, 2-leaf stage, visual evaluation after 13 to 15 d; read-out: Plant response rating, Sedge, Umbrella (0 to 100 scale, 0 is no effect, 100 is complete control)
How it was run: as §2

[14] = system: ducksalad (Heteranthera limosa); test: Test B flooded paddy test, ducksalad; conditions: Heteranthera limosa, 360 h; Flood, 250 g ai/ha, applied to paddy water, 2-leaf stage, visual evaluation after 13 to 15 d; read-out: Plant response rating, Ducksalad (0 to 100 scale, 0 is no effect, 100 is complete control)
How it was run: as §2

[15] = system: barnyardgrass (Echinochloa crus-galli); test: Test B flooded paddy test, barnyardgrass; conditions: Echinochloa crus-galli, 360 h; Flood, 250 g ai/ha, applied to paddy water, 2-leaf stage, visual evaluation after 13 to 15 d; read-out: Plant response rating, Barnyardgrass (0 to 100 scale, 0 is no effect, 100 is complete control)
How it was run: as §2

| SMILES | Barnyardgrass plant response rating ([1]; 125 g ai/ha) | Barnyardgrass plant response rating ([1]; 500 g ai/ha) | Kochia plant response rating (kochia (Kochia scoparia) [2]; 125 g ai/ha) | Kochia plant response rating (kochia (Kochia scoparia) [2]; 500 g ai/ha) | Ragweed plant response rating ([3]; 125 g ai/ha) | Ragweed plant response rating ([3]; 500 g ai/ha) | Ryegrass, Italian plant response rating ([4]; 125 g ai/ha) | Ryegrass, Italian plant response rating ([4]; 500 g ai/ha) | Foxtail, Giant plant response rating ([5]; 125 g ai/ha) | Foxtail, Giant plant response rating ([5]; 500 g ai/ha) | Pigweed plant response rating ([6]; 125 g ai/ha) | Pigweed plant response rating ([6]; 500 g ai/ha) | pest or weed control at 125 g/ha [7] | pest or weed control at 500 g/ha [7] | pest or weed control at 125 g/ha (kochia (Kochia scoparia) [8]) | pest or weed control at 500 g/ha (kochia (Kochia scoparia) [8]) | pest or weed control at 125 g/ha [9] | pest or weed control at 500 g/ha [9] | pest or weed control at 125 g/ha [10] | pest or weed control at 500 g/ha [10] | also measured |
| --- | --- | --- | --- | --- | --- | --- | --- | --- | --- | --- | --- | --- | --- | --- | --- | --- | --- | --- | --- | --- | --- |
| C[C@@H](Nc1ncc(C(F)(F)F)c(N)n1)c1cc2cccc(F)c2o1 [Compound 71, N2-[(1R)-1-(7-fluoro-2-benzofuranyl)ethyl]-5-(trifluoromethyl)-2,4-pyrimidinediamine] | 70 | 100 | 90 | 100 | 100 | 100 | 20 | 80 | 90 | 100 | 100 | 100 | 30% | 100% | 90% | 90% | 80% | 90% | 30% | 70% | pest or weed control at 125 g/ha [11]: 60%; pest or weed control at 500 g/ha [11]: 90%; plant injury at 125 g/ha [12]: 0%; plant injury at 500 g/ha [12]: 0%; Corn plant response rating (crop injury, 0 = no effect, 100 = complete kill) at 125 g/ha (corn (Zea mays)): 0%; Corn plant response rating (crop injury, 0 = no effect, 100 = complete kill) at 500 g/ha (corn (Zea mays)): 40%; plant injury at 250 g/ha (rice (Oryza sativa)): 0%; pest or weed control at 250 g/ha [13]: 0%; pest or weed control at 250 g/ha [14]: 0%; pest or weed control at 250 g/ha [15]: 0% |
| C[C@@H](Nc1ncc(C(F)(F)F)c(N)n1)c1cc2cccc(F)c2s1 [Compound 75, N2-[(1R)-1-(7-fluorobenzo[b]thien-2-yl)ethyl]-5-(trifluoromethyl)-2,4-pyrimidinediamine] | 90 | 90 | 90 | 100 | 100 | 100 | 80 | 100 | 90 | 100 | 100 | 100 | 30% | 100% | 80% | 90% | 70% | 90% | 0% | 50% | pest or weed control at 125 g/ha [11]: 60%; pest or weed control at 500 g/ha [11]: 90%; plant injury at 125 g/ha [12]: 0%; plant injury at 500 g/ha [12]: 0%; Corn plant response rating (crop injury, 0 = no effect, 100 = complete kill) at 125 g/ha (corn (Zea mays)): 0%; Corn plant response rating (crop injury, 0 = no effect, 100 = complete kill) at 500 g/ha (corn (Zea mays)): 10%; plant injury at 250 g/ha (rice (Oryza sativa)): 0%; pest or weed control at 250 g/ha [13]: 98%; pest or weed control at 250 g/ha [14]: 95%; pest or weed control at 250 g/ha [15]: 40% |
| C[C@@H](Nc1ncc(C(F)(F)F)c(N)n1)c1cc2c(F)cccc2o1 [Compound 73, N2-[(1R)-1-(4-fluoro-2-benzofuranyl)ethyl]-5-(trifluoromethyl)-2,4-pyrimidinediamine] | 90 | 100 | 100 | 100 | 100 | 100 | 100 | 100 | 100 | 100 | 100 | 100 | 60% | 100% | 90% | 100% | 90% | 100% | 90% | 100% | pest or weed control at 125 g/ha [11]: 70%; pest or weed control at 500 g/ha [11]: 100%; plant injury at 125 g/ha [12]: 0%; plant injury at 500 g/ha [12]: 0%; Corn plant response rating (crop injury, 0 = no effect, 100 = complete kill) at 125 g/ha (corn (Zea mays)): 30%; Corn plant response rating (crop injury, 0 = no effect, 100 = complete kill) at 500 g/ha (corn (Zea mays)): 40%; plant injury at 250 g/ha (rice (Oryza sativa)): 10%; pest or weed control at 250 g/ha [13]: 90%; pest or weed control at 250 g/ha [14]: 98%; pest or weed control at 250 g/ha [15]: 65% |
